Assay: xn = mol fraction of the nth substance listed
Details: 100 kPa, Liquid; for viscosity: Concentric cylinders viscometry; for mass density: Vibrating tube method

Nc1ccccc1 [aniline] + CCCC(C)O
Details	mass density [kg/m3]	viscosity [mPa·s]
293.15 K, x1 = 0.0811	824.5	3.55
293.15 K, x1 = 0.1599	839.5	3.23
293.15 K, x1 = 0.2399	855	3
293.15 K, x1 = 0.35	877	2.8
293.15 K, x1 = 0.44	895.5	2.71
293.15 K, x1 = 0.56	920.8	2.67
293.15 K, x1 = 0.65	940.4	2.72
293.15 K, x1 = 0.74	960.5	2.86
293.15 K, x1 = 0.8499	985.8	3.26
293.15 K, x1 = 0.9363	1006.3	3.79
293.15 K, x1 = 1	1021.7	4.37
298.15 K, x1 = 0.0811	820.3	3.03
298.15 K, x1 = 0.1599	835.3	2.74
298.15 K, x1 = 0.2399	850.8	2.53
298.15 K, x1 = 0.35	872.7	2.35
298.15 K, x1 = 0.44	891.1	2.28
298.15 K, x1 = 0.56	916.4	2.28
298.15 K, x1 = 0.65	935.9	2.34
298.15 K, x1 = 0.74	956	2.49
298.15 K, x1 = 0.8499	981.4	2.87
298.15 K, x1 = 0.9363	1001.9	3.31
298.15 K, x1 = 1	1017.4	3.8
303.15 K, x1 = 0.0811	816.1	2.61
303.15 K, x1 = 0.1599	831	2.34
303.15 K, x1 = 0.2399	846.5	2.12
303.15 K, x1 = 0.35	868.3	1.93
303.15 K, x1 = 0.44	886.7	1.86
303.15 K, x1 = 0.56	912	1.83
303.15 K, x1 = 0.65	931.6	1.87
303.15 K, x1 = 0.74	951.7	2.01
303.15 K, x1 = 0.8499	977	2.36
303.15 K, x1 = 0.9363	997.6	2.74
303.15 K, x1 = 1	1013.2	3.13
308.15 K, x1 = 0.0811	811.8	2.22
308.15 K, x1 = 0.1599	826.7	1.98
308.15 K, x1 = 0.2399	842.1	1.8
308.15 K, x1 = 0.35	863.9	1.65
308.15 K, x1 = 0.44	882.3	1.58
308.15 K, x1 = 0.56	907.6	1.562
308.15 K, x1 = 0.65	927.1	1.64
308.15 K, x1 = 0.74	947.2	1.78
308.15 K, x1 = 0.8499	972.7	2.09
308.15 K, x1 = 0.9363	993.3	2.44
308.15 K, x1 = 1	1009	2.75
313.15 K, x1 = 0.0811	807.5	1.84
313.15 K, x1 = 0.1599	822.3	1.64
313.15 K, x1 = 0.2399	837.6	1.5
313.15 K, x1 = 0.35	859.4	1.39
313.15 K, x1 = 0.44	877.8	1.359
313.15 K, x1 = 0.56	903	1.38
313.15 K, x1 = 0.65	922.6	1.46
313.15 K, x1 = 0.74	942.8	1.61
313.15 K, x1 = 0.8499	968.2	1.89
313.15 K, x1 = 0.9363	989	2.18
313.15 K, x1 = 1	1004.7	2.43
318.15 K, x1 = 0.0811	803.1	1.48
318.15 K, x1 = 0.1599	817.9	1.34
318.15 K, x1 = 0.2399	833.2	1.257
318.15 K, x1 = 0.35	854.9	1.18
318.15 K, x1 = 0.44	873.3	1.16
318.15 K, x1 = 0.56	898.6	1.21
318.15 K, x1 = 0.65	918.1	1.29
318.15 K, x1 = 0.74	938.3	1.44
318.15 K, x1 = 0.8499	963.8	1.7
318.15 K, x1 = 0.9363	984.6	1.93
318.15 K, x1 = 1	1000.4	2.14
323.15 K, x1 = 0.0811	798.7	1.19
323.15 K, x1 = 0.1599	813.3	1.11
323.15 K, x1 = 0.2399	828.6	1.06
323.15 K, x1 = 0.35	850.2	1.03
323.15 K, x1 = 0.44	868.5	1.03
323.15 K, x1 = 0.56	893.7	1.08
323.15 K, x1 = 0.65	913.3	1.17
323.15 K, x1 = 0.74	933.4	1.31
323.15 K, x1 = 0.8499	958.9	1.54
323.15 K, x1 = 0.9363	979.7	1.77
323.15 K, x1 = 1	995.5	1.96

Nc1ccccc1 [aniline] + CC(C)O
Details	mass density [kg/m3]	viscosity [mPa·s]
293.15 K, x1 = 0.0813	809.7	2.291
293.15 K, x1 = 0.1599	832	2.176
293.15 K, x1 = 0.2396	853.7	2.12
293.15 K, x1 = 0.349	882	2.1
293.15 K, x1 = 0.4402	904.3	2.17
293.15 K, x1 = 0.5598	932.1	2.33
293.15 K, x1 = 0.6501	952	2.54
293.15 K, x1 = 0.74	971	2.81
293.15 K, x1 = 0.8499	993.2	3.31
293.15 K, x1 = 0.9402	1010.6	3.93
293.15 K, x1 = 1	1021.7	4.37
298.15 K, x1 = 0.0813	805.3	1.963
298.15 K, x1 = 0.1599	827.5	1.86
298.15 K, x1 = 0.2396	849.2	1.8
298.15 K, x1 = 0.349	877.4	1.78
298.15 K, x1 = 0.4402	899.7	1.84
298.15 K, x1 = 0.5598	927.6	1.98
298.15 K, x1 = 0.6501	947.5	2.16
298.15 K, x1 = 0.74	966.5	2.39
298.15 K, x1 = 0.8499	988.8	2.84
298.15 K, x1 = 0.9402	1006.2	3.39
298.15 K, x1 = 1	1017.4	3.8
303.15 K, x1 = 0.0813	800.8	1.651
303.15 K, x1 = 0.1599	823	1.56
303.15 K, x1 = 0.2396	844.6	1.5
303.15 K, x1 = 0.349	872.8	1.47
303.15 K, x1 = 0.4402	895.1	1.48
303.15 K, x1 = 0.5598	923	1.58
303.15 K, x1 = 0.6501	942.9	1.7
303.15 K, x1 = 0.74	961.9	1.9
303.15 K, x1 = 0.8499	984.2	2.27
303.15 K, x1 = 0.9402	1001.8	2.73
303.15 K, x1 = 1	1013.2	3.13
308.15 K, x1 = 0.0813	796.4	1.454
308.15 K, x1 = 0.1599	818.5	1.39
308.15 K, x1 = 0.2396	840	1.34
308.15 K, x1 = 0.349	868.2	1.3
308.15 K, x1 = 0.4402	890.6	1.3
308.15 K, x1 = 0.5598	918.5	1.36
308.15 K, x1 = 0.6501	938.5	1.48
308.15 K, x1 = 0.74	957.6	1.67
308.15 K, x1 = 0.8499	980	1.99
308.15 K, x1 = 0.9402	997.7	2.39
308.15 K, x1 = 1	1009	2.75
313.15 K, x1 = 0.0813	791.9	1.29
313.15 K, x1 = 0.1599	814	1.23
313.15 K, x1 = 0.2396	835.5	1.18
313.15 K, x1 = 0.349	863.6	1.15
313.15 K, x1 = 0.4402	885.9	1.14
313.15 K, x1 = 0.5598	913.8	1.2
313.15 K, x1 = 0.6501	933.9	1.3
313.15 K, x1 = 0.74	953.1	1.48
313.15 K, x1 = 0.8499	975.6	1.79
313.15 K, x1 = 0.9402	993.3	2.13
313.15 K, x1 = 1	1004.7	2.43
318.15 K, x1 = 0.0813	787.2	1.125
318.15 K, x1 = 0.1599	809.2	1.076
318.15 K, x1 = 0.2396	830.7	1.043
318.15 K, x1 = 0.349	858.9	1.02
318.15 K, x1 = 0.4402	881.2	1.03
318.15 K, x1 = 0.5598	909.2	1.08
318.15 K, x1 = 0.6501	929.2	1.166
318.15 K, x1 = 0.74	948.5	1.34
318.15 K, x1 = 0.8499	971.1	1.6
318.15 K, x1 = 0.9402	988.9	1.9
318.15 K, x1 = 1	1000.4	2.14
323.15 K, x1 = 0.0813	782.4	0.97
323.15 K, x1 = 0.1599	804.3	0.91
323.15 K, x1 = 0.2396	825.7	0.88
323.15 K, x1 = 0.349	853.8	0.85
323.15 K, x1 = 0.4402	876.2	0.86
323.15 K, x1 = 0.5598	904.1	0.91
323.15 K, x1 = 0.6501	924.2	1.01
323.15 K, x1 = 0.74	943.4	1.18
323.15 K, x1 = 0.8499	966.1	1.45
323.15 K, x1 = 0.9402	984	1.74
323.15 K, x1 = 1	995.5	1.96
